This assay deals with MCF7. As to the kind of experiment: Cytotoxicity against human MCF7 cells after 24 hrs by MTT assay. Conditions: MCF7, 24 h. Format: functional, cell-based. (In general: Tetrazolium dyes change colour on reduction, which living cells bring about.)

Molecules are shown by their SMILES.

On to `C[C@H](C/C=C/C(C)(C)O)[C@H]1CC[C@@]2(C)[C@@H]3[C@@H](O)C=C4[C@@H](CC[C@H](O)C4(C)C)[C@]3(C)CC[C@]12C`, for which the IC50 – broadly, the concentration needed to halve the response being measured – was determined as 45.3 µM.
Under `C=C(C)[C@@H](O)[C@H](O)C[C@@H](C)[C@H]1CC[C@@]2(C)[C@@H]3[C@@H](O)C=C4[C@@H](CC[C@H](O)[C@]4(C)CO)[C@]3(C)CC[C@]12C` [BALSAMINAPENTAOL A] stands 47 µM; under `CC(C)=C[C@H](O)C[C@@H](C)[C@H]1CC[C@@]2(C)[C@@H]3[C@@H](O)C=C4[C@@H](CC[C@H](O)[C@]4(C)CO)[C@]3(C)CC[C@]12C` [BALSAMINOL A], 40 µM; under `CO[C@H]1C=C2[C@@H](CC[C@H](O)[C@]2(C)CO)[C@]2(C)CC[C@]3(C)[C@@H]([C@H](C)C[C@@H](O)C=C(C)C)CC[C@@]3(C)[C@H]12` [BALSAMINOL B], 55.3 µM.
In turn, `C[C@H](C/C=C/C(C)(C)O)[C@H]1CC[C@@]2(C)[C@@H]3[C@@H](O)C=C4[C@@H](CC[C@H](O)C4(C)C)[C@]3(C)C[C@@H](O)[C@]12C` [CUCURBALSAMINOL A] yielded a concentration for half-maximal inhibition (IC50) above 133 µM.
The compound `COc1cccc2c1C(=O)c1c(O)c3c(c(O)c1C2=O)C[C@@](O)(C(=O)CO)C[C@@H]3O[C@H]1C[C@H](N)[C@H](O)[C@H](C)O1` [DOXORUBICIN] gave an IC50 of 0.92 µM.
For `CC(C)=C[C@H](O)C[C@@H](C)[C@H]1CC[C@@]2(C)[C@@H]3C=C[C@@]45OC[C@]3(CC[C@]12C)[C@@H]4CC[C@H](O)C5(C)C` [KARAVILAGENIN E] the value was 30.7 µM.

Source of the values: ChEMBL document CHEMBL1154330, “Cucurbitane-type triterpenoids from the African plant Momordica balsamina” (J Nat Prod, 2009).
